Ends that are not written are not given here.
Key:
[1] = Reversed-phase HPLC retention time as measure of peptide hydrophobicity; format: physicochemical; details: retention time by reverse-phase HPLC, reflects hydrophobicity difference between analogues
Source text: The physicochemical parameters crucial for the antimicrobial activity of AMPs have been identified, encompassing net charge, helicity, hydrophobicity, and amphipathicity. The hydropathicity, mean relative hydrophobic moment, and charge of peptides were predicted using the HeliQuest (https://heliquest.ipmc.cnrs.fr/ (accessed on 12 March 2024)). Lysine is a hydrophilic amino acid, and its substitution leads to a decrease in the hydrophobicity of the SAAP-148 analogue. The anticipated results are consistent, with the degree of reduction in […] varying depending on the position at which lysine is substituted (Table 2). The amphipathicity of the peptides, as denoted by the μH (mean relative hydrophobic moment), is elaborated on in Table 2. The hydrophobic moment of SAAP-148 analogues was decreased except for SAAP-10, which is on account of the substitution occurring on the18th residue. (Figure 1) The 18th residue of SAAP-148 is glutamine, a polar amino acid residue, located at the junction of the hydrophobic and hydrophilic surfaces of the SAAP-148 α-helix. […] The retention time data determined by reversed-phase high-performance liquid chromatography (RP-HPLC) reflects the hydrophobicity difference between peptide analogues. It is well documented that the formation of a hydrophobic-binding domain due to peptide secondary structure can affect peptide interactions with reversed-phase matrices. This effect was observed particularly for amphipathic α-helical peptides. Given this preferred binding domain, amphipathic α-helical peptides are considerably more retentive than non-amphipathic peptides with the same amino acid composition.
This phenomenon was particularly evident in the case of amphipathic α-helical peptides. […] This discrepancy may be attributed to the lack of a well-defined α-helical structure in SAAP-148 and its analogues (Figure S1).

[2] = system: Escherichia coli (1.8732); format: cell-based
Source text: (§1) The LL-37, SAAP-148 and its analogues peptides were synthesized according to the standard Fmoc procedure. The Fmoc-protected resin and monomers are first treated with a basic solvent (piperidine) to remove the amino protecting groups. The carboxyl group of the next amino acid is activated by an activator. The activated monomer reacts with the free amino group to form a peptide bond. These two steps are repeated in a cycle until the synthesis is complete. After synthesis, the peptide is eluted from the column and purified by reverse-phase semipreparative high-performance liquid chromatography as detailed in Table 1. The peptides were dissolved in PBS to create a 1000 μmol/L stock solution for subsequent use. The purity of the synthetic peptide exceeded 95%. Blood samples from healthy donors were obtained from the Fifth Medical Center of Chinese PLA General Hospital (Beijing, China). Human normal lung epithelial cells (BEAS-2B) and mouse mononuclear macrophages cells (RAW 264.7) were sourced from Beyotime Biotechnology (Beijing, China), along with the Enhanced Cell Counting Kit-8 (CCK-8) and nitric oxide detection kit. RPMI-1640 and DMEM were procured from Merck (Darmstadt, Germany), while FBS was obtained from ExCell Bio (Shanghai, China). LPS-B5 (from E. coli 055:B5) was procured from Invivogen (Toulouse, France). Five bacterial strains, including Escherichia coli (1.8732), Pseudomonas aeruginosa (1.2421), Klebsiella pneumonia (1.1736) as Gram-negative bacteria, and Staphylococcus aureus (1.8721) and Staphylococcus epidermidis (1.4260) as Gram-positive bacteria, were procured from the China General Microbiological Culture Collection Centre (CGMCC) (Beijing, China).
(§2) The antibacterial activities of the peptides against […] were evaluated using a modified version of the Clinical Laboratory and Standards Institute (CLSI) broth microdilution method, as previously described. Briefly, the bacteria were cultured in liquid LB medium (comprising 10 g/L tryptone, 5 g/L yeast extract, and 10 g/L NaCl) at 37 °C until reaching mid-log phase. Subsequently, the bacterial concentration was adjusted to 1 × 10^6 colony-forming units (CFU)/mL. The peptides were then diluted serially with phosphate-buffered saline (PBS), followed by the addition of 50 μL of the diluted peptides to 50 μL of the bacterial suspension in a 96-well plate (Corning Inc., Lowell, MA, USA). After incubating at 37 °C for 18 to 20 h, the absorbance of each well was measured using a multi-well microplate reader (SpectraMax M5; Molecular Devices, Sunnyvale, CA, USA) at 600 nm.

[3] = system: Pseudomonas aeruginosa (1.2421); format: cell-based
Source text: as §1, §2

[4] = system: Staphylococcus aureus (1.8721); format: cell-based
Source text: as §1, §2

[5] = system: Staphylococcus epidermidis (1.4260); format: cell-based
Source text: as §1, §2

[6] = system: Klebsiella pneumonia (1.1736); format: cell-based, Klebsiella pneumoniae
Source text: as §1, §2

[7] = system: Gram-negative bacteria (E. coli, P. aeruginosa, K. pneumoniae); test: Geometric mean of MICs against Gram-negative bacteria; format: cell-based; parameters: unit not given here
Method: as §2

[8] = system: Gram-positive bacteria (S. aureus, S. epidermidis); test: Geometric mean of MICs against Gram-positive bacteria; format: cell-based; parameters: unit not given here
Method: as §2

[9] = system: five bacterial strains; test: MICs against all five bacterial strains (geometric mean, range); format: cell-based; parameters: unit not given here; details: geometric mean of MICs against all five bacterial strains
Method: as §2

[10] = system: human erythrocytes; test: Haemolytic activity; format: cell-based
Method: The haemolytic activity of the peptides was evaluated using a standard procedure with minor adjustments. Fresh human erythrocytes were washed thrice and subsequently resuspended at 1.25% haematocrit in PBS. Forty microlitres PBS-diluted peptide solution was added to a 96-well plate (Corning Inc., Lowell, MA, USA), and 160 μL of erythrocytes was added. After incubation at 37 °C for 30 min, the samples were centrifuged, and the absorbance of the supernatant was measured at 450 nm using a multi-well microplate reader (SpectraMax M5; Molecular Devices, Sunnyvale, CA, USA) and compared with the 100% haemolysis caused by 0.1% Triton X-100. The percentage of haemolysis was calculated according to the equation: Haemolysis%=Asample−Ablank/Atriton−Ablank×100

[11] = system: human erythrocytes versus five bacterial strains; test: Therapeutic index (MHC/GM of MIC); details: for Fold (TI of analogue compared with SAAP-148): TI change relative to SAAP-148; for TI (MHC/MIC): ratio of MHC to geometric mean of MIC (five strains)
Method: The geometric mean of minimum inhibitory concentration (MIC) values (GM) from the five strains was calculated to provide a comprehensive assessment of antimicrobial activity, as presented in Table 4.
The therapeutic index (TI) is a widely utilized parameter for indicating the specificity of antimicrobial agents, which is determined by the ratio of MHC (hemolytic activity) and MIC (antimicrobial activity). Consequently, larger TI values signify greater antimicrobial specificity. The TI can be enhanced through one of three mechanisms: increasing antimicrobial activity, reducing hemolytic activity while maintaining antimicrobial activity, or a combination of both augmenting antimicrobial activity and diminishing hemolytic activity.

[12] = CD spectra, secondary structure by BeStSel; format: physicochemical; details: 30 μM SDS as printed, 100 μM peptide, 25 °C
Method: CD spectra (Figure S1) were acquired using a JASCO J-1500 spectropolarimeter (JASCO Inc., Easton, MD, USA) in 0.1 cm pathlength cells under nitrogen at 25 °C. The spectra were recorded in the range of 190 to 250 nm at a peptide concentration of 100 μM in SDS. Secondary structure was determined using the BeStSel server. Hydropathicity, mean relative hydrophobic moment, and charge of peptides were predicted using the HeliQuest (https://heliquest.ipmc.cnrs.fr/ (accessed on 12 March 2024)). The 3D structure of SAAP-148 and its analogues (Figure S2) was predicted using PEP-FOLD4 servers (https://bioserv.rpbs.univ-paris-diderot.fr/services/PEP-FOLD4/ (accessed on 19 June 2024)).

| Substance | Rt [1] [min] | MIC E. coli [2] [µM] | MIC P. aeruginosa [3] [µM] | MIC S. aureus [4] [µM] | MIC S. epidermidis [5] [µM] | MIC K. pneumoniae [6] [µM] | GM to G− [7] | GM to G+ [8] | MIC (GM) [9] | fold increase of MHC over that of SAAP-148 [10] [fold] | Fold (TI of analogue compared with SAAP-148) [11] | TI (MHC/MIC) [11] | Others [12] [%] | Turn [12] [%] | α-Helix [12] [%] | β-Antiparallel [12] [%] | β-Parallel [12] [%] |
| --- | --- | --- | --- | --- | --- | --- | --- | --- | --- | --- | --- | --- | --- | --- | --- | --- | --- |
| LKRVWKRKFKLLKRYWRQLKKPVR-NH2 [SAAP-4] | 9.96 | 1.56 | 3.13 | 100.00 | 3.13 | 100.00 | 7.87 | 17.69 | 10.88 | 133.33 | 83.55 | 9.19 | 3.6 | 0 | 50.9 | 45.5 | 0 |
| LKRVWKRVFKLLKRYWRQKKKPVR-NH2 [SAAP-11] | 15.926 | 6.25 | 6.25 | 50.00 | 3.13 | 100.00 | 15.75 | 12.51 | 14.36 | – | 0.45 | 0.05 | 0 | 0 | 100 | 0 | 0 |
| LKRVWKRVKKLLKRYWRQLKKPVR-NH2 [SAAP-5] | 10.681 | 1.56 | 6.25 | 25.00 | 3.13 | 6.25 | 3.94 | 8.85 | 5.44 | – | 10.45 | 1.15 | 0 | 0 | 100 | 0 | 0 |
| LKRVKKRVFKLLKRYWRQLKKPVR-NH2 [SAAP-3] | 11.208 | 1.56 | 3.13 | 100.00 | 3.13 | 6.25 | 3.12 | 17.69 | 6.25 | – | 72.73 | 8.00 | 0 | 0 | 100 | 0 | 0 |
| LKRVWKRVFKLLKRYKRQLKKPVR-NH2 [SAAP-9] | 11.941 | 3.13 | 1.56 | 50.00 | 3.13 | 12.50 | 3.94 | 12.51 | 6.25 | – | 9.09 | 1.00 | 0 | 0 | 100 | 0 | 0 |
| LKRVWKRVFKLLKRYWRQLKKPKR-NH2 [SAAP-13] | 16.867 | 6.25 | 12.50 | 50.00 | 6.25 | 25.00 | 12.5 | 17.68 | 14.36 | – | 0.45 | 0.05 | 1.2 | 0 | 98.8 | 0 | 0 |
| LKRVWKRVFKLLKRKWRQLKKPVR-NH2 [SAAP-8] | 13.475 | 1.56 | 1.56 | 25.00 | 1.56 | 25.00 | 3.93 | 6.24 | 4.74 | – | 6 | 0.66 | 0 | 0 | 100 | 0 | 0 |
| LKRVWKRVFKKLKRYWRQLKKPVR-NH2 [SAAP-6] | 9.213 | 1.56 | 1.56 | 25.00 | 1.56 | 6.25 | 2.48 | 6.24 | 3.59 | – | 15.82 | 1.74 | 0 | 0 | 84.4 | 15.6 | 0 |

Reference: article PMC11546786, “Designing Analogs of SAAP-148 with Enhanced Antimicrobial and Anti-LPS Activities” (International Journal of Molecular Sciences, 2024)
